Measured values: paper PMC8445934, “Transformation of tenofovir into stable ProTide nanocrystals with long-acting pharmacokinetic profiles” (Nature Communications, 2021)
“And” between values parts separate entries of the source, which are not always exact repeats. Equal entries are not always repeated. Where two headings read alike, the source gives them in different places.

Tests used:
[1] = test system: human monocyte-derived macrophages (MDM); assay: MTT cell viability / mitochondrial activity assay in MDM; details: for Cell viability by MTT, normalized to untreated control cells: replicates
Protocol: Human monocytes were obtained, cultured, and differentiated into MDM as previously described[11],[12],[34],[62]. The cell viability after treatment with nanoparticles was evaluated using the MTT assay. […] The cells were then washed with PBS after which 100 μL of MTT solution was added to each well (5 mg/mL) for 45 min at 37 °C. The MTT solution was then replaced with 200 μL/well of DMSO. A Molecular Devices SpectraMax M3 plate reader with SoftMax Pro 6.2 software (Sunnyvale, CA) was used to record absorbance at a wavelength of 490 nm.

[2] = test system: human MDM; details: for prodrug measurements (uptake) / prodrug measurements (retention): 10 uM; for prodrug measurements (uptake): replicates; for prodrug measurements (retention): MDM
Protocol: Human MDMs were used for in vitro formulation assessments. MDM formulation uptake and retention studies were performed in flat-bottom, 12-well plates at a density of 1.2 × 10^6 cells/well, with each treatment completed in triplicate. […] At 2, 4, and 8 h after treatment, the cells were collected, processed, and analyzed for drug content by UPLC-UV/vis as previously described[12],[13],[56],[63]. […] Then, a culture medium (without drug) was added, and a half-media volume was replaced every other day. MDMs were collected at days 1, 5, 10, 15, and 30 after treatment, and then analyzed for intracellular drug content by UPC-UV/vis. […] MDMs were then collected immediately after the 8 h treatment and analyzed by an FEI Tecnai G2 Spirit transmission electron microscope as previously described[11],[12],[14].
Intracellular TFV-DP was extracted from human MDM or rat PBMCs as follows. […] At 2, 4, and 8 h after treatment, MDM was washed with PBS to remove the excess free drug. The cells were then collected in 70% MS-grade MeOH. TFV-DP from MDM was extracted as follows. Sep-Pak QMA cartridges (360 mg, 37–55 μm; Waters, Milford, MA) were used to separate TFV-DP from TFV- and mono-phosphate counterparts. The QMA cartridges were conditioned with 10 ml of 500 mM KCl, followed by 10 ml of 5 mM KCl. The sample (200 μL) was loaded onto the cartridges and washed with 12 ml of 75 mM KCl. The triphosphate (TP) fraction was eluted with 3 ml of 500 mM KCl. The pH of the TP fraction was lowered to 4.25 by adding 45 μl ammonium acetate buffer (pH 4, 10 mM) per ml eluate, and dephosphorylated by adding one unit of type XA sweet potato acid phosphatase (Sigma-Aldrich) per ml eluate (3 μL per sample) and incubating at 37 °C for 45 min. […] Samples were then loaded onto Waters OASIS HLB cartridges (60 mg, 30 μm; Waters, Milford, MA) pre-conditioned with 3 ml 100% methanol followed by 3 ml 1% TFA to remove salts. Salts were removed from the dephosphorylated samples with 3.5 ml of 1% TFA in water, then eluted with 1.5 ml 100% methanol and evaporated under vacuum. Once dry, the residue was stored at −80 °C until UPLC–MS/MS analyses. Samples were reconstituted in 100 μL of 10% MeOH, 90% 7.5 mM ammonium bicarbonate pH 7 in LC-MS grade water.
TFV-DP: Parent TFV was generated from TFV-DP during sample preparation and then subjected to UPLC-MS/MS analyses. The UPLC-MS/MS system was comprised of a Waters ACQUITY UPLC system coupled to a Waters Xevo TQ-XS triple quadrupole mass spectrometer (Waters, Milford, MA) with electrospray ionization (ESI) source. A CSH C18 analytical column (2.1 × 100 mm, 1.7 µm) equipped with a guard column (Waters, Milford, MA) at 30 °C was used for analyte separation. Samples were maintained at 4 °C during analysis. […] Mobile phase A consisted of 7.5 mM ammonium bicarbonate in water (MS grade, Fisher) with pH adjusted to 7.0 with glacial acetic acid (ACS grade, Sigma). Mobile phase B was 100% methanol (MS grade, Fisher). The flow rate was 0.22 mL/min. […] B was then held at 90% for 0.4 min before returning to initial conditions. Spectra were analyzed and quantified by MassLynx software version 4.1. Quantitation was based upon drug peak area to internal standard peak area ratios.

[3] = test system: CEM-ss T-cells; details: replicates
Protocol: Supplementary Fi gur e 9. ProTide Biological Characterizations. […]
one- way analysis of variance (ANOVA) followed by Tukey’s post hoc test was used to compare the prodrug and TFV-DP levels among three treatment groups (*P ≤ 0.05, **P < 0.01, […]
(0.0001– 1000 nM) and determined by HIV-1 reverse transcriptase (RT) activity after viral challenge with HIV -1ADA at an MOI of 0.1. Data was normalized and expressed as percentage of HIV-1 control ± SEM; N = 4.
(1 picture or pasted object on this page, not shown here)

CC(C)OC(=O)[C@H](C)N[P@](=O)(CO[C@H](C)Cn1cnc2c(N)ncnc21)Oc1ccccc1 [TAF, tenofovir alafenamide]
toxicity to cells ([1]; 100 μM): highly toxic to cells
concentration above which a decrease in cell viability was observed ([1]; 8 h): above 12.5 μM
Cell viability by MTT, normalized to untreated control cells ([1]; 8 h, 1.5625 uM): 0.7334 and 0.7343 and 0.7491
Cell viability by MTT, normalized to untreated control cells ([1]; 8 h, 3.125 uM): 0.6802 and 0.6819 and 0.7483
Cell viability by MTT, normalized to untreated control cells ([1]; 8 h, 6.25 uM): 0.6627 and 0.6548 and 0.6836 and 0.7177
Cell viability by MTT, normalized to untreated control cells ([1]; 8 h, 25 uM): 0.6304 and 0.5666 and 0.5754 and 0.5928
Cell viability by MTT, normalized to untreated control cells ([1]; 8 h, 50 uM): 0.4531 and 0.3981 and 0.3597 and 0.4348
Cell viability by MTT, normalized to untreated control cells ([1]; 8 h, 100 uM): 0.3842 and 0.3676 and 0.4051 and 0.4296
Cell viability by MTT, normalized to untreated control cells ([1]; 8 h, 200 uM): 0.3562 and 0.31 and 0.303 and 0.3222
time by which no drug was detectable in MDM ([2]; 10 μM): ≤ 24 h
prodrug measurements (uptake) ([2]; 2 hours): 2.762 and 0.9713 and 2.037
prodrug measurements (uptake) ([2]; 4 hours): 0.3098
Intracellular prodrug concentration ([2]; 10 μM, 8 h): 0.38 μg/10^6 cells
prodrug measurements (uptake) ([2]; 8 hours): 0.3813
prodrug measurements (retention) ([2]; day 1, replicates): 0
prodrug measurements (retention) ([2]; day 5, replicates): 0
prodrug measurements (retention) ([2]; day 10, replicates): 0
prodrug measurements (retention) ([2]; day 15, replicates): 0
prodrug measurements (retention) ([2]; day 30, replicates): 0
Prodrug measurements, CEM-ss cells ([3]; 2 hours): 0.09778 and 0.1063 and 0.08772
Prodrug measurements, CEM-ss cells ([3]; 4 hours): 0.113 and 0.1292 and 0.1331
Prodrug measurements, CEM-ss cells ([3]; 8 hours): 0.2769 and 0.2544 and 0.2424
